In brackets after ≈: the same amount, converted by molar mass.

One series is described as follows: physchem. Particulars: pH 7, water.
Series [1] is described as follows: Visual comparison of carfilzomib in water, cyclodextrin and cyclodextrin-free formulations (FIG. 2). It is filed as physicochemical. Particulars: CFZ-API concentration of 2 mg/mL. The source says:
Carfilzomib (CFZ) is a proteasomal inhibitor and active ingredient of KYPROLIS®, a lyophilized drug product which is for the treatment of multiple myeloma. The current commercial formulation of KYPROLIS contains CAPTISOL®, which is a cyclodextrin used to help solubility the CFZ-API. The present invention provides a stable, cyclodextrin-free formulations for CFZ-API in an aqueous solution which is suitable for injection. FIG. 2 illustrates (a) insoluble CFZ-API in water (b) current commercial KYPROLIS formulation containing CAPTISOL (middle vial); and (c) the cyclodextrin free chlorobutanol formulation of the invention (right vial). Each sample contains CFZ-API concentration of 2 mg/mL.

Broadly, the solubility is the concentration that dissolves in the medium under given conditions. The low end stands for a poorly soluble substance, the high end for a readily soluble substance. `CC(C)C[C@H](NC(=O)[C@H](CCc1ccccc1)NC(=O)CN1CCOCC1)C(=O)N[C@@H](Cc1ccccc1)C(=O)N[C@@H](CC(C)C)C(=O)[C@@]1(C)CO1` [CFZ-API, Carfilzomib] registered a solubility in “physchem” of 2 µg/mL (≈ 2.78 µM). The “Visual solubility in water” value in series [1] is “insoluble”.

The record behind these values is patent US20250345384A1, “STABLE CYCLODEXTRIN FREE CARFILZOMIB FORMULATION” (AMGEN INC., priority 2020, published 2025).
